US12600716B2 (Gannex Pharma Co., Ltd., priority 2020, dated 2026)
Where two headings read alike, the source gives them in different places.

What was measured:
[1] = system: STZ+DEN+HFD induced NASH model; assay: STZ+DEN+HFD induced NASH model in mice; type: in vivo, male C57BL/6 mice
Description: Therapeutic efficacy of FXR compounds was evaluated in STZ+DEN+HFD induced NASH model in male C57BL/6 mice. Briefly, newborn male C57BL/6 mice were injected with streptozocin (STZ) at Week 2 to introduce diabetes and diethylnitrosamine (DEN) at Week 4 to promote liver fibrosis. Mice receiving neither STZ nor DEN were used as negative control (Group 1, n=12) and were fed with normal diet. At Week 6, 60 diabetic mice were selected (blood glucose>12 mmol/L after 6 h of fasting) and were fed with high fat diet (HFD, diet that contains 60 kcal % fat). After one week on HFD, animals were randomly assigned into 5 groups based on body weight: Group 2 (n=12), disease model group, no compound treatment; Group 3 (n=10), positive control group, treated with OCA (30 mg/kg); Group 4 (n=12), treated with Compound 1 (3 mg/kg); Group 5 (n=12), treated with Compound 1 (10 mg/kg); Group 6 (n=12), treated with Compound 1 (30 mg/kg). OCA and Compounds 1 were PO QD, for 7 weeks. On the day after last dose, all animals were euthanized and liver tissues were fixed with formalin for pathological evaluation.

[2] = system: DEN+HFD+CHOL induced NASH model; assay: DEN+HFD+CHOL induced NASH model in rats; type: in vivo, male SD rats
Description: Therapeutic efficacy of FXR compounds was evaluated in DEN+HFD+CHOL induced NASH model in male SD rats. Newborn male rats received DEN injection at Week 2 after birth to generate NASH model. Negative control animals (Group 1, n=10) received no DEN injection. At Week 4, 50 rats that received DEN injections started HFD+CHOL diet (60 kcal % Fat+1.25% Cholesterol+0.5% cholate) for 8 weeks, while negative control animals were still on normal diet. At Week 5, DEN treated rats were randomly assigned into 5 groups (Group 2-6) based on body weight. Disease Group (Group 2, n=10), received no treatment; OCA group (Group 3, n=10) received OCA at 30 mg/kg. Group 4-6 (n=10 each) received Compound 1 at low (3 mg/kg), […], and […]. OCA and Compound 1 were given PO QD, for 7 weeks. On the day after last dose, all animals were euthanized and liver tissues were fixed with formalin for pathological evaluation.

[3] = Mouse pharmacokinetic studies (IV and PO); type: in vivo, Male CD-1 mice
Description: Mouse Pharmacokinetic Studies
Typical PK study procedure. For i.v. PK studies, a group of three fasted Male CD-1 mice were dosed with the compound (2.0 mg/kg, 0.50 mg/mL in 5% solutol in saline, clear solution), and 0.02 mL blood was collected at 0.0830, 0.250, 0.500, 1.00, 2.00, 4.00, 8.00, 24.0 h. For PO PK studies, a group of three fasted Male CD-1 mice were dosed with the compound (10 mg/kg, 1 mg/mL in 5% solutol in saline, clear solution), and 0.02 mL blood was collected at 0.250, 0.500, 1.00, 2.00, 4.00, 6.00, 8.00, 24.0 h. The blood was collected into EP tubes (containing EDTA K20.85-1.15 mg) and centrifuged at 3,000 g or 3,200 g at 4° C. for 10 min) and plasma was isolated and divided into two vials. One was used for bioanalysis and one was kept as backup. The samples were kept at −60° C. or below, until being analyzed by LC MS/MS. The samples were analyzed with AB SCIEX INSTRUMENTS LC-MS/MS AU-Triple Quad 6500 Plus and data were processed with Phoenix WinNonlin 6.3 (IV-noncompartmental model and PO-noncompartmental model).

[4] = male, CD-1, plasma, PO 10 mg/kg

SMILES	NAS score ([1]; 30 mg/kg PO QD 7 weeks)	NAS score ([2]; 30 mg/kg PO QD 7 weeks, p<0.001)	decreased NAS score as compared with the model group ([1]; 30 mg/kg PO QD 7 weeks) [%]	lowered cirrhosis percentage ([1]; 30 mg/kg PO QD 7 weeks) [%]	hepatocyte steatosis (FIG. 1) ([1]; 3, 10 and 30 mg/kg PO QD 7 weeks, p<0.001)	progress of liver fibrosis (FIG. 2) ([1]; low (3 mg/kg) and high doses (30 mg/kg) PO QD 7 weeks)	PO F ([3]; PO 10 mg/kg vs IV 2.0 mg/kg) [%]	Vd ([3]; male, CD-1, plasma, IV 2.0 mg/kg) [L/kg]	AUC(0-t) ([3]; male, CD-1, plasma, IV 2.0 mg/kg, read-out: IV AUC 0-t) [ng·h/mL]	clearance ([3]; male, CD-1, plasma, IV 2.0 mg/kg, read-out: IV Cl) [mL/min/kg]	half-life ([3]; male, CD-1, plasma, IV 2.0 mg/kg, read-out: IV T½ (converted)) [min]	Cmax [3, 4] [ng/mL]	Tmax [3, 4] [min]	AUC(0-t) ([3]; male, CD-1, plasma, PO 10 mg/kg, read-out: PO AUC 0-t) [ng·h/mL]	NAS score lowered as compared to the model group ([2]; 30 mg/kg PO QD 7 weeks) [%]	lowered cirrhosis percentage ([2]; 30 mg/kg PO QD 7 weeks) [%]	NAS score (FIG. 3) ([2]; 3, 10 and 30 mg/kg PO QD 7 weeks, all p<0.001)	progress of liver fibrosis (FIG. 4) ([2]; 3, 10 and 30 mg/kg PO QD 7 weeks, p<0.01)
CC[C@H]1[C@@H](O)[C@@H]2[C@H](CC[C@]3(C)[C@@H]([C@H](C)CCC(=O)O)CC[C@@H]23)[C@@]2(C)CC[C@@H](O)C[C@@H]12 [OCA, reference compound]	decrease in NAS score	decrease in NAS score																
O=C(O)c1ccc(Oc2ccc3cc(OCc4c(-c5c(Cl)cccc5Cl)noc4C4CC4)ccc3c2)nc1 [Compound 1, 6-((6-((5-cyclopropyl-3-(2,6-dichlorophenyl)isoxazol-4-yl)methoxy)naphthalen-2-yl)oxy)nicotinic acid]	significantly decreases		46.2	15.2	dose dependent decrease	significantly inhibited	33	1.75	705	47.4	51	641	49.8	1160	42.9	28.0	dose dependent decrease	significantly inhibited
